# Experimental data published in US10188625B2, “Combination of a retinoid and a diol and polyunsaturated fatty acid ester” (PIERRE FABRE DERMO-COSMETIQUE, priority 2015, dated 2019).
# What was measured:
# [1] = system: retentional lesions (open and closed comedones); experiment: Clinical study (open) of creams: count of retentional lesions in subjects with mild to moderate acne; type: in vivo, human; settings: topical cream (retinaldehyde 0.1% and/or Compound A 0.6%)
# Description: The clinical trial was an open study involving 60 subjects (men and women) between 12 and 35 years of age with mild to moderate acne for purposes of testing the tolerance and efficacy of Composition 2.
# All of the participants initially had more than 10 retentional lesions (open and closed comedones) on their skin (excluding the nasal pyramid).
# The cream was applied to the face (clean skin) in the evening by means of gentle massage.
# The lesions were counted at T0 (before the first treatment), T3 weeks and T6 weeks according to the method described by Lucky (Lucky AW et al. (1996)).
# The clinical trial was an open study involving 29 subjects (men and women) between 12 and 35 years of age with mild to moderate acne for purposes of testing the tolerance and efficacy of cream having the following composition:
# All of the participants initially had more than 10 retentional lesions (open and closed comedones) on their skin.
# The lesions were counted at T0, T3 weeks and T6 weeks.
# The clinical trial was an open study involving 46 subjects (men and women) between 12 and 35 years of age with mild to moderate acne for purposes of testing the tolerance and efficacy of cream having the following composition:
# The cream was applied to the face (clean skin) twice per day (morning and evening) by means of gentle massage.
# [2] = system: genes responsible for differentiation in keratinocytes (human skin explants); experiment: Microarray analysis of differentiation genes in human skin explants treated topically with retinaldehyde; type: cell-based
# Description: In these experiments, retinaldehyde was applied topically for 24 hours at a concentration of 0.025% dissolved in Myritol on human skin explants (of 3 donors) kept alive in culture medium (Dulbecco's Modified Eagle Medium (DMEM)+10% fetal bovine serum (FBS)). Myritol alone was used as the control. At the conclusion of this treatment, the RNA is extracted, inspected for quality, and analyzed by means of a microarray (Agilent Technology). They are averaged fold-change values below 1.8 (p<0.05). A fold change of −2.00 corresponds to a decrease in gene expression of about 50%.
# [3] = system: keratinocyte proliferation; experiment: Keratinocyte proliferation; type: cell-based
# [4] = system: genes responsible for differentiation in keratinocytes (human skin explants); experiment: Microarray analysis of differentiation genes in human skin explants treated topically with retinaldehyde; type: cell-based; settings: 0.025% in Myritol, topical 24 hours
# [5] = human skin explants (3 donors), control Myritol alone, p 0.115
structure (smiles),measurement,setting,value
CC/C=C\C/C=C\C/C=C\CCCCCCCC(=O)OCC(O)CCCCCC (centres unmarked) [Compound A],Change in mean number of retentional lesions,[1]; T = 3 weeks,−6%
same,Change in mean number of retentional lesions,[1]; T = 6 weeks,−19%
"CC1=C(/C=C/C(C)=C/C=C/C(C)=C/C=O)C(C)(C)CCC1 [Retinaldehyde, retinaldehyde]",Change in mean number of retentional lesions,[1]; T = 3 weeks,−23%
same,Change in mean number of retentional lesions,[1]; T = 6 weeks,−37%
same,"Fold change, KRTCAP3 (keratinocyte associated protein 3)","[2]; 0.025% in Myritol, topical 24 hours, human skin explants (3 donors), control Myritol alone, p 0.009",−1.81
same,"Fold change, KRT6A (keratin 6A)","[2]; 0.025% in Myritol, topical 24 hours, human skin explants (3 donors), control Myritol alone, p 0.012",−2.83
same,"Fold change, KRT6C (keratin 6C)","[2]; 0.025% in Myritol, topical 24 hours, human skin explants (3 donors), control Myritol alone, p 0.015",−3.61
same,"Fold change, FLJ46111 (keratin 8 pseudogene)","[2]; 0.025% in Myritol, topical 24 hours, human skin explants (3 donors), control Myritol alone, p 0.016",−2.71
same,"Fold change, EPPK1 (epiplakin 1)","[2]; 0.025% in Myritol, topical 24 hours, human skin explants (3 donors), control Myritol alone, p 0.042",−1.60
same,effect on keratinocyte differentiation,[2]; conclusion from gene modulation in human skin explants,inhibits keratinocyte differentiation
same,effect on cell (keratinocyte) proliferation,[3],does not increase cell proliferation
same,number of keratins inhibited,[4]; human skin explants,11
same,number of targets of terminal keratinocyte differentiation inhibited,[4]; human skin explants,13
same,"Fold change, CNFN (cornifelin)","[4]; human skin explants (3 donors), control Myritol alone, p 0.004",−1.56
same,"Fold change, KRT16 (keratin 16)","[4]; human skin explants (3 donors), control Myritol alone, p 0.027",−2.63
same,"Fold change, CDSN (corneodesmosin)","[4]; human skin explants (3 donors), control Myritol alone, p 0.052",−1.49
same,"Fold change, DSG3 (desmoglein 3)","[4]; human skin explants (3 donors), control Myritol alone, p 0.056",−1.77
same,"Fold change, DSC1 (desmocollin 1)","[4]; human skin explants (3 donors), control Myritol alone, p 0.058",−1.70
same,"Fold change, DSG1 (desmoglein 1)","[4]; human skin explants (3 donors), control Myritol alone, p 0.070",−1.68
same,"Fold change, EVPL (envoplakin)","[4]; human skin explants (3 donors), control Myritol alone, p 0.072",−1.41
same,"Fold change, UPK2 (uroplakin 2)","[4]; human skin explants (3 donors), control Myritol alone, p 0.091",−1.53
same,"Fold change, DSC3 (desmocollin 3)","[4]; human skin explants (3 donors), control Myritol alone, p 0.095",−1.55
same,"Fold change, KRTAP11-1 (keratin associated protein 11-1)",[4]; [5],−4.68
same,"Fold change, LCE3A (late cornified envelope 3A)",[4]; [5],−2.73
same,"Fold change, LCE3D (late cornified envelope 3D)","[4]; human skin explants (3 donors), control Myritol alone, p 0.271",−1.90
same,"Fold change, KRTAP3-1 (keratin associated protein 3-1)","[4]; human skin explants (3 donors), control Myritol alone, p 0.288",−2.09
same,"Fold change, KRT6B (keratin 6B)","[4]; human skin explants (3 donors), control Myritol alone, p 0.325",−1.83
same,"Fold change, KRT27 (keratin 27)","[4]; human skin explants (3 donors), control Myritol alone, p 0.372",−2.66
same,"Fold change, KRT86 (keratin 86)","[4]; human skin explants (3 donors), control Myritol alone, p 0.472",−2.19
